Results reported in PMC9386018, “A lymphatic-absorbed multi-targeted kinase inhibitor for myelofibrosis therapy” (Nature Communications, 2022).
Values joined by “and” are separate entries in the source; they are usually repeats but may differ in a detail not shown here. Identical values can stand only once.

Assays:
[1] = molecular target: 321 human protein kinases (Homo sapiens, UniProt O60331); assay: Single-point broad panel kinome screening (SelectScreen Z'-LYTE and Adapta); format: biochemical; settings: PIP5K1C; […] LP-182; [ATP] 10 μM
Procedure: (§1) Quantitation of kinase inhibition was carried out by Life Technologies (Madison, WI) using the SelectScreen profiling platforms Z’-LYTE^TM and Adapta^TM. Single-point broad panel kinome screening was performed at 2.5 µM LP-182 against all kinases within the Z’-LYTE^TM and Adapta^TM assays (321 kinase isoforms, holoenzymes, or mutant variants). The average percent kinase inhibition from replicate data was ranked low to high, converted to a compatible identifier format, then input into Coral Human Kinome Visualization software for presentation analysis. […] Scaling of evolutionary distance for PI kinases is only relative and is based on literature analysis[62],[63]. Average percent kinome inhibition values from replicate data are supplied in Source Data file. […]. Corrected data was normalized to vehicle treated control values, and dose response percent kinase activity was analyzed by non-linear regression for determination of IC50 values.

[2] = molecular target: 321 human protein kinases (Homo sapiens, UniProt P45983); assay: as above; format: biochemical; settings: MAPK8 (JNK1); […] LP-182; [ATP] 100 μM
Procedure: as §1

[3] = molecular target: 321 human protein kinases (Homo sapiens, UniProt Q16539); assay: as above; format: biochemical; settings: MAPK14 (p38 alpha); […] LP-182; [ATP] 100 μM
Procedure: as §1

[4] = molecular target: 321 human protein kinases (Homo sapiens, UniProt P42356); assay: as above; format: biochemical; settings: PI4KA (PI4K alpha); […] LP-182; [ATP] 10 μM
Procedure: as §1

[5] = molecular target: 321 human protein kinases (Homo sapiens, UniProt Q99755); assay: as above; format: biochemical; settings: PIP5K1A; […] LP-182; [ATP] 10 μM
Procedure: as §1

[6] = molecular target: 321 human protein kinases (Homo sapiens, UniProt P52564); assay: as above; format: biochemical; settings: MAP2K6 (MKK6); […] LP-182; [ATP] 100 μM
Procedure: as §1

[7] = molecular target: 321 human protein kinases (Homo sapiens, UniProt P45984); assay: as above; format: biochemical; settings: MAPK9 (JNK2); […] LP-182; [ATP] 100 μM
Procedure: as §1

[8] = tested on: MPL^W515L mouse model of myelofibrosis; assay: MPL^W515L MF mouse model: tibia bone marrow ADC by diffusion-weighted MRI; format: in vivo; settings: MPL^W515L mice, oral 400 mg kg^−1 daily
Procedure: Generation of the MPL^W515L mutant MF mouse model was similar to previously described methods. Briefly, female donor BALB/c mice were treated with 5-fluorouracil at 150 mg kg^−1 intraperitoneal for 5 d before harvesting bone marrow. Hematopoietic stem and progenitor cells were enriched with CD117 magnetic beads (Miltenyi Biotec), transduced with retrovirus containing MSCV-hMPL W515L-IRES-GFP, then 50,000 transduced HSPCs along with 300,000 total non-stem cells were injected intravenously into lethally irradiated female BALB/c recipients. Development of MF was evaluated by spleen volumes using MRI beginning ~14 d following bone marrow transplantation (BMT) as outlined below, continuing weekly until end of the study. Mice were separated into equal groups based on spleen size ~14–21 d post-BMT, then treated with vehicle (Maisine CC) or LP-182 at 400 mg kg^−1 daily by oral gavage for 14–28 d or until mice were euthanized using guidelines for end stage illness and humane endpoints. Untreated healthy control animals were used for experimental comparisons. […] Soluble protein extracts were isolated by centrifugation at 15,000 x g for 15 min at 4 °C, quantified using Micro BCA protein assay (Thermo Scientific), then mixed with reducing 6X SDS-PAGE loading dye, heated for 8 min at 95 °C, and stored at −20 °C until immuno-blot analysis. […]

[9] = tested on: Caspase 3/7 activity in SET-2 cells; assay: SET-2 Caspase activation assay (Caspase-Glo 3/7); format: cell-based, human; settings: 48 h; for Relative Caspase activation: normalized to vehicle, replicates
Procedure: Viable cells were counted by CellTiter-Fluor Assay (Promega) according to manufacturer’s protocol, and all fluorescence values were corrected by a no-cell control. For Caspase activation assays, SET-2 cells were cultured for 48 h at 10^6 cells mL^−1 with various concentration of LP-182 or vehicle (DMSO). Caspase activity was measured by Caspase-Glo 3/7 assay (Promega) according to the manufacturer’s protocol, and all luminescence values were corrected by a no-cell control. Dose response proliferation and Caspase activation data was normalized to vehicle treated control cells and analyzed by non-linear regression for determination of IC50 values. Data was generated from n = 3 independent experiments performed in replicate.

Chain of 321 human protein kinases (Homo sapiens, UniProt Q99755) (Q99755 whole entry): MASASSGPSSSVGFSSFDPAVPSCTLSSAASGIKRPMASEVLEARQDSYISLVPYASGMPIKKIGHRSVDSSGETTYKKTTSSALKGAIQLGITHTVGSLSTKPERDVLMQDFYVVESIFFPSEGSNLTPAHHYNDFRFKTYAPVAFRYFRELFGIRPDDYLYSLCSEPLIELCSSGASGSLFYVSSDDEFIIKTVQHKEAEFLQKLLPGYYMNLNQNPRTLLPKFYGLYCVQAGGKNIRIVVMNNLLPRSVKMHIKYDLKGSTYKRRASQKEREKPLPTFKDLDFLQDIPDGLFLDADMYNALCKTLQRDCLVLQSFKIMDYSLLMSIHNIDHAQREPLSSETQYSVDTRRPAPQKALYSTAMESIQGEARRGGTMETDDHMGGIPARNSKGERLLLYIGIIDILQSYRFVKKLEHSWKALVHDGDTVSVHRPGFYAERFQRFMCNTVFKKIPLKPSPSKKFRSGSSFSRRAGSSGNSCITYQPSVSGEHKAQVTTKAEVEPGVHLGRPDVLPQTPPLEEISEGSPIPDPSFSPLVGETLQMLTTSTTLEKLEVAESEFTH
Chain of 321 human protein kinases (Homo sapiens, UniProt Q16539) (Q16539 whole entry): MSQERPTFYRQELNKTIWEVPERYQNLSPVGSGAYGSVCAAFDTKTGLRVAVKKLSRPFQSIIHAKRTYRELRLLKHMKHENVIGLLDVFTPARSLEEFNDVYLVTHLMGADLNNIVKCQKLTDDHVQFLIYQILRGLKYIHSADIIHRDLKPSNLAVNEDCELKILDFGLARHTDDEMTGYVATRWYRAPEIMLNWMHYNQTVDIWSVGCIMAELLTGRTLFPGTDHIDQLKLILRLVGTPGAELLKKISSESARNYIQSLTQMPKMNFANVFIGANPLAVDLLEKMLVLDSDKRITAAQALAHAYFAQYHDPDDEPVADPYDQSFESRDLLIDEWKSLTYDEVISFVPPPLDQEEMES
Chain of 321 human protein kinases (Homo sapiens, UniProt P52564) (P52564 whole entry): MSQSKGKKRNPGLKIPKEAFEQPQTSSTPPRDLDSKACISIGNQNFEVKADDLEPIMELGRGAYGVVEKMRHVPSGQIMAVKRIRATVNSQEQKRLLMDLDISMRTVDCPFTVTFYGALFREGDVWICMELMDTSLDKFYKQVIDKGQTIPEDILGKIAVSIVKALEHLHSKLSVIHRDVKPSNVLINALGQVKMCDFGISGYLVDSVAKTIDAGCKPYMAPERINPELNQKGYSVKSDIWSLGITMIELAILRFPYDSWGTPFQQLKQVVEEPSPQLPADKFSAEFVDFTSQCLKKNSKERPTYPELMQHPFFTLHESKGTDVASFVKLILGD
Chain of 321 human protein kinases (Homo sapiens, UniProt O60331) (O60331 whole entry, canonical isoform): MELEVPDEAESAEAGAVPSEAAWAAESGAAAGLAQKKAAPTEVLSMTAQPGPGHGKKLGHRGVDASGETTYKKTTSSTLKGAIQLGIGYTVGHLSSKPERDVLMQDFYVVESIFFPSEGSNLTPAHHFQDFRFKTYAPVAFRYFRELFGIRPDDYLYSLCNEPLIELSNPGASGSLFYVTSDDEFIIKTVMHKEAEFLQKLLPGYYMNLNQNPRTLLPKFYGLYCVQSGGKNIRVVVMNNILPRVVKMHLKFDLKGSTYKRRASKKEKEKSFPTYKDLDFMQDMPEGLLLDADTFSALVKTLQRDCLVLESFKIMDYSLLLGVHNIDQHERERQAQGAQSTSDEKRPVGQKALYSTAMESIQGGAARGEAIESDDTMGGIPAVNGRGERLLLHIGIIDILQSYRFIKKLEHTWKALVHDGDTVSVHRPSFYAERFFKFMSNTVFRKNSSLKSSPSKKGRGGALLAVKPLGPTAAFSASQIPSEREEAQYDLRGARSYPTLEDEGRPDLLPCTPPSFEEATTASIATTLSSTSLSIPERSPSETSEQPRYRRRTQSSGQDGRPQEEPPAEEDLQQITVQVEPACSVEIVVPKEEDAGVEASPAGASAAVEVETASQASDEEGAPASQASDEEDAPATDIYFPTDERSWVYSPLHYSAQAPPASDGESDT
Chain of 321 human protein kinases (Homo sapiens, UniProt P45984) (P45984 whole entry): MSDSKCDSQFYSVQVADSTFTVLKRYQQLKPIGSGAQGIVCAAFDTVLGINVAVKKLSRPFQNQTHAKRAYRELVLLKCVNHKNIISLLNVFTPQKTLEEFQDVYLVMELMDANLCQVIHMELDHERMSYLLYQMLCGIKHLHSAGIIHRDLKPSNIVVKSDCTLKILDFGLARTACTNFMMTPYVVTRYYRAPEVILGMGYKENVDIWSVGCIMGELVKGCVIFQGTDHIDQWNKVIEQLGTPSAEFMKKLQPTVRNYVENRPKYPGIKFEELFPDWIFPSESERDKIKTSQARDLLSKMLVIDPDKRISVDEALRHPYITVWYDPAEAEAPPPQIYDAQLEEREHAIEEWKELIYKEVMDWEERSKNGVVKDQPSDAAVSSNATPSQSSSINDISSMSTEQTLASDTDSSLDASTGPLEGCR
Chain of 321 human protein kinases (Homo sapiens, UniProt P45983) (P45983 whole entry): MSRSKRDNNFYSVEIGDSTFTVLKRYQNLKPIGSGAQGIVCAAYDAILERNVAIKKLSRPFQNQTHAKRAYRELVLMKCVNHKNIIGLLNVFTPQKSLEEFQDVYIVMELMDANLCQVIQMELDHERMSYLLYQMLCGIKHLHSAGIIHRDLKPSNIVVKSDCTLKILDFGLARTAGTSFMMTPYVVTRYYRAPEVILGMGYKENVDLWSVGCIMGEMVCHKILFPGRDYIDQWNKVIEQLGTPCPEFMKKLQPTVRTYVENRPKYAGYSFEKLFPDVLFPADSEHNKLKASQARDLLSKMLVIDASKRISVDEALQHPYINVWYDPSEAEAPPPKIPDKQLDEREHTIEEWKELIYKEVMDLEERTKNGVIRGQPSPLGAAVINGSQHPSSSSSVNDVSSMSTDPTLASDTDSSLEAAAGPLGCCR
Chain of 321 human protein kinases (Homo sapiens, UniProt P42356) (P42356 whole entry): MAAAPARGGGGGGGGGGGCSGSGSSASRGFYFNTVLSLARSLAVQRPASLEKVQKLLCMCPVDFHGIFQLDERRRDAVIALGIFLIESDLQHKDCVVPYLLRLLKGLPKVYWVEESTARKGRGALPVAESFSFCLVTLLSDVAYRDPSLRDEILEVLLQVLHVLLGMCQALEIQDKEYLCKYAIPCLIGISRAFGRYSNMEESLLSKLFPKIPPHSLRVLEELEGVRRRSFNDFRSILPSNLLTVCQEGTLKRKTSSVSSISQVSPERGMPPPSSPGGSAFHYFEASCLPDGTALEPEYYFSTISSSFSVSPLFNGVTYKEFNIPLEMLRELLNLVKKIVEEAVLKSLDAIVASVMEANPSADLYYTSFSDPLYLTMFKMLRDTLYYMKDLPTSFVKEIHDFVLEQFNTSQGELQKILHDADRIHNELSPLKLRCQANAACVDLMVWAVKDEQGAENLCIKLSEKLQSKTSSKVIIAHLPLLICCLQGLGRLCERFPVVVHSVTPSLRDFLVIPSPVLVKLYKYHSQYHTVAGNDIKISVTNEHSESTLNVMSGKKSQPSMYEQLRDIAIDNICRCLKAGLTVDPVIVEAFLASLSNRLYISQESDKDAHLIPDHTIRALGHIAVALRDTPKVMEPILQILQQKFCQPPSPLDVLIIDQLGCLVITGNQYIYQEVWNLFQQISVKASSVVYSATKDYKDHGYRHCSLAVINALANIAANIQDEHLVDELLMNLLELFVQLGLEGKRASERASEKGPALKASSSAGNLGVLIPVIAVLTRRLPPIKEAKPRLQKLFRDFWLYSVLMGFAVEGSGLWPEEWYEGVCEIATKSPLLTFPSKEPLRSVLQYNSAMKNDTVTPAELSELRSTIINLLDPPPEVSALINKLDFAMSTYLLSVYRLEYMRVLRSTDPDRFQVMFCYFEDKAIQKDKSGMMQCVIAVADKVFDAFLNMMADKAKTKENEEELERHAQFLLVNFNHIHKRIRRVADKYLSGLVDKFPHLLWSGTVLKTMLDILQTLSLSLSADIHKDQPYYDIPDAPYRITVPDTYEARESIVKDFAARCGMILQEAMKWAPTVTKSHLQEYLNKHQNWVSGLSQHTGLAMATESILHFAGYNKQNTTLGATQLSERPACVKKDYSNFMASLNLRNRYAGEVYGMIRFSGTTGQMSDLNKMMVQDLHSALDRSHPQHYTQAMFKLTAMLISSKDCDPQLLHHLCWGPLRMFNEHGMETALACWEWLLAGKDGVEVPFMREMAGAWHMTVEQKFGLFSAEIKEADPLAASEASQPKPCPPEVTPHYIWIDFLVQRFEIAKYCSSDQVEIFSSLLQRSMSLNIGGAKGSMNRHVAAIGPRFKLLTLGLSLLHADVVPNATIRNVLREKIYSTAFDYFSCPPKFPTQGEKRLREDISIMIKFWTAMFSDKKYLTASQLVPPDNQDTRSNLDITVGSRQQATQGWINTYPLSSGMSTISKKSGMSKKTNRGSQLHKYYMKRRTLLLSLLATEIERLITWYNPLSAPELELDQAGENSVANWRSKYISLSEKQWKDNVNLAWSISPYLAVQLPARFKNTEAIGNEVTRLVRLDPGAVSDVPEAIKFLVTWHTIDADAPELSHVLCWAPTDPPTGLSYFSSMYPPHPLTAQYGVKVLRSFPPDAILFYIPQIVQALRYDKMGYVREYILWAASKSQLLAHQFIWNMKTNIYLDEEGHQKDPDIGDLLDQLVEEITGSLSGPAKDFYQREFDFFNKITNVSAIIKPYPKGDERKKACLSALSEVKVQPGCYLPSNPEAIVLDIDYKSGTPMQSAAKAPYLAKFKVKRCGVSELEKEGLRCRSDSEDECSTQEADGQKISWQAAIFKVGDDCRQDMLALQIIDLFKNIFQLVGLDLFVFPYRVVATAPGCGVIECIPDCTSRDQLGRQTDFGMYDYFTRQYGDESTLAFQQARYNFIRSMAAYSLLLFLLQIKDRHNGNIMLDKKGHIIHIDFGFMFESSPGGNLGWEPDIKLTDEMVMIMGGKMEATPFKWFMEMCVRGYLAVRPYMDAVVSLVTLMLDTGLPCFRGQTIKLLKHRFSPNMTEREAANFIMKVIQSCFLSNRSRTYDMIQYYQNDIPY

O=C(NOCCOCCOCCOCCC(=O)N1CCN(c2cnc3ccc(-c4cnc(Cl)c(NS(=O)(=O)c5ccc(F)cc5)c4)cc3n2)CC1)c1ccc(F)c(F)c1Nc1ccc(I)cc1F [LP-182, N-(2-(2-(2-(3-(4-(7-(6-chloro-5-((4-fluorophenyl)sulfonamido)pyridin-3-yl)quinoxalin-2-yl)piperazin-1-yl)-3-oxopropoxy)ethoxy)ethoxy)ethoxy)-3,4-difluoro-2-((2-fluoro-4-iodophenyl)amino)benzamide]
inhibition at […] [1]: 28% | inhibition at […] [2]: 15% | inhibition at […] [3]: 22% | inhibition at […] [4]: 24% | inhibition at […] [5]: 26% | inhibition at […] [6]: 16% | inhibition at […] [7]: 2.22% | tibia bone marrow ADC change [8]: variable, spatially-dependent increase in ADC values | apoptotic cell death (Caspase activation) [9]: initiated apoptotic cell death | Relative Caspase activation ([9]; LP-182 5 µM): 1.094 and 1.105 and 1.123 and 1.124 and 1.108 and 1.081 | Relative Caspase activation ([9]; LP-182 10 µM): 1.411 and 1.334 and 1.453 and 1.372 and 1.41 and 1.477 | Relative Caspase activation ([9]; LP-182 20 µM): 1.934 and 1.9571 and 1.914 and 1.975 and 2.004 and 1.977 | Relative Caspase activation ([9]; LP-182 40 µM): 2.054 and 1.793 and 2.072 and 2.115 and 2.193 and 2.206
